# Assay results: patent publication US20010033847A1, “DERMATOLOGIC PREPARATION” (priority 1996, published 2001)
# Test system: affected regions of atopic patients
# Assay: itch and area of inflammation after 1 week of application in atopic patients
# Assay type: in vivo, human
# Details: number of 3 atopic patients; daily application for 1 week
# Description: The dermatologic preparations of Examples 1 to 3 and the dermatologic preparations for comparison of Reference Examples 1 to 3 were evaluated for itch and the area of inflammation 1 week after application.
# To the affected regions of 3 atopic patients (1 adult, 1 adult, and 1 child), was applied an adequate amount of each oil produced in Examples 1 to 3 and Reference Examples 1 to 3 after bathing every day. After application for 1 week, itch and the inflammatory area were evaluated. During the treatment period, the drugs used previously were continued. In the child who could not describe itch, itch was evaluated based on the behavior of scratching at the affected region.
substance,measurement,value
"1,3-dioctanoyl-2-eicosapentaenoyl glycerol [Example 2]",inflammatory area: no change,0 patients
same,inflammatory area: reduced,3 patients
same,inflammatory area: widened,0 patients
same,itch: improved,3 patients
same,itch: no change,0 patients
same,itch: worsened,0 patients
